For 1 molecule, solubility results are on record in US9752049B2, “Optically transparent, superhydrophobic, biocompatible thin film coatings and methods for producing same” (UT-BATTELLE, LLC, priority 2014, dated 2017).

Values after ≈ are worked out from the molar mass of the structure shown.

The nature of this series: physchem. To be noted: organic solvent or mixture, Solubility Limit. From the text: The first step was to gather solubility data on the fatty acids in readily available solvents. […] The available solvents included ethanol, isopropanol, hexane, and acetone.
The next step was to use spin-coating to apply the optimum mixture of each fatty acid/alcohol solution to microscope slides. This process began with cleaning the slide, then affixing it to the spin-coater by turning on the internal vacuum. Once the slide was in place, the chosen solution was applied by a syringe using a 0.02 micron filter. This filter was to ensure that only the pure solution and no contaminants or occasional precipitates made it onto the slide. The coated slide was then spun at 1000 rpm for thirty seconds and placed on a hot plate at 152 degrees Fahrenheit to vaporize any remaining solvent. The slide was allowed to cool for two minutes. Once cool, the slide was subjected to a simple yet effective test of hydrophobicity. This test consisted of merely placing a water droplet on the slide using a Pasteur pipet and eyeballing it to see if it even merited further characterization. This process was repeated for many slides, each time varying the type of fatty acid and the solvent as well as the concentration of the fatty acid in the solvent. […] Below is additional solubility data for Behenic Acid: […]

Take `CCCCCCCCCCCCCC(=O)O` [Myristic Acid]: the solubility was determined as 300 mM (≈ 68.5 mg/mL).
